Values joined by “and” are separate entries in the source; they are usually repeats but may differ in a detail not shown here. Identical values can stand only once.
Tests used:
[1] = molecular target: T1, Nox2 (Homo sapiens, UniProt P04839); assay: ROS (H2O2) generation in whole COS-Nox2 cells, Amplex Red assay; type: cell-based; settings: for IC50: whole COS-Nox2 cells stimulated with 5 μM PMA, Amplex Red; for Nox2 inhibitory activity: Table 2; for Selectivity for Nox2 over other Nox isoforms: cell-based assays for each Nox system
T1 construct: expressed in transfected cells
T1 sequence (P04839 2-570 limits assumed): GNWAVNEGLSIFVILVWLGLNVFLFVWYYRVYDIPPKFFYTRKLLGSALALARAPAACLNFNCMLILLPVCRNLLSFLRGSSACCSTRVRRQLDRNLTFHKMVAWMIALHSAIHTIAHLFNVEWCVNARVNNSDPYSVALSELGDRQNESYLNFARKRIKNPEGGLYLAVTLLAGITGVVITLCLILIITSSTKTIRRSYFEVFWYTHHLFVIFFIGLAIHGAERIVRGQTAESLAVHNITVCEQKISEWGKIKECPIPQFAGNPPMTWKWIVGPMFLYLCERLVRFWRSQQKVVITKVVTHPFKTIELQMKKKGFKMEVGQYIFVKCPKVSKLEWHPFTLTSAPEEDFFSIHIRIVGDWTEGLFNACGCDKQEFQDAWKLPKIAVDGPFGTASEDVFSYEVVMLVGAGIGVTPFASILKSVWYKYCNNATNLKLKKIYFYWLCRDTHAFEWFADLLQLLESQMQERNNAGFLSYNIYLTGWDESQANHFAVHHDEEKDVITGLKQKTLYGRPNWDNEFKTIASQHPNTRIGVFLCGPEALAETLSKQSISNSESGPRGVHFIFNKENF
From the text: (§1) All cell culture reagents were obtained from Invitrogen, unless indicated. COS-22 (COS-7 cells stably expressing human p22^phox) and COS-Nox2 (a.k.a. COS-phox) cells (COS-7 cells stably expressing human p22^phox, Nox2, p47^phox and p67^phox) were kindly provided by Dr. Mary C. Dinauer (Indiana University, School of Medicine) (Price et al., Blood, 2002, 99:2653-2661). COS-22 cells were maintained in Dulbecco's Modified Eagle Medium (DMEM) with 4.5 g/L glucose, L-glutamine and sodium pyruvate containing 10% heat-inactivated fetal bovine serum (FBS), 100 units/ml penicillin and 100 μg/ml streptomycin (complete media) supplemented with 1.8 mg/ml G418 (Calbiochem/EMB Bioscience, Gibbstown, N.J.). COS-Nox2 cells were maintained in complete media supplemented with 1.8 mg/mL G418, 1 μg/mL puromycin (Sigma, St Louis, Mo.) and 0.2 mg/mL hygromycin B (Invitrogen, Carlsbad, Calif.). HEK-Nox5 cells were kindly provided by Dr. David Fulton (Georgia Health Sciences University) and maintained in complete media.
H2O2 production was quantified in intact COS-Nox4 cells by Amplex® Red. Briefly, COS-Nox4 cells (5×10^4 cells/ml) were re-plated into 384-well plate in assay buffer (25 mM Hepes, pH 7.4, containing 0.12 M NaCl, 3 mM KCl, 1 mM MgCl2). The cells were incubated in the presence or absence of drugs at 37° C. in assay buffer supplemented with 0.1 mM Amplex® Red, and 0.32 U/ml of horse radish peroxidase (HRP) for 15 min. Fluorescence measurements were made using a Biotek Synergy 4 Hybrid Multi-Mode Microplate Reader with a 530/25-excitation and a 590/35-emission filter. The reaction was monitored at 37° C. for 1 h. A standard curve of known H2O2 concentrations was included on each plate. Nox4 activity was obtained by calculating the rate of H2O2 production as RFU/min and then subtracting the equivalent value given by non-transfected COS-22 cells. Similarly, H2O2 production by Nox2 cells was also measured by Amplex® Red as described above but in the presence of 150 U/mL of SOD and the reaction was initiated by addition of 5 μM PMA. The rate of H2O2 production in this case was calculated as RFU/min after the subtraction of the equivalent value given by non-stimulated cells. Data are expressed as % of vehicle control.
(§2) All data are expressed as means±SEM. IC50 values were determined using the GraphPad Prism software (GraphPad Software, San Diego, Calif.) for non-linear regression three-parameters, with constrain values of 100 and 0 for top and bottom, respectively, and assumes a Hill slope of 1.

[2] = molecular target: T1, Nox2; assay: ROS (superoxide) generation in whole COS-Nox2 cells, L-012 chemiluminescence; type: cell-based; settings: for Activity in primary library screen: screened at 100, 50, 25, and 12.5 μM, COS-Nox2 cells; for IC50: whole COS-Nox2 cells stimulated with 5 μM PMA
From the text: as §1
COS-Nox2, COS-Nox1/NOXO1/NOXA1, HEK-Nox5 and COS-22 cells were re-plated in OPTIMEM into 384-well white micro-plates (Greiner-Bio One GmbH, Germany) at a density of 2.5×10^3 cells/well for COS-Nox2 and 5×10^4 cells/well for all others. The cells were incubated at 37° C. in PBS containing […] L-012 for 10 min. Reaction was initiated by addition of 5 μM PMA in the case of Nox2 or 1 μM PMA/0.1 μM Ionomycin in the case of Nox5. Since Nox1 was constitutively active, Nox1-derived O2^•− was assessed by comparison to non-transfected cells (Cos22). Luminescence was quantified over time using a Biotek Synergy 4 Hybrid Multi-Mode Microplate Reader. The specificity of L-012 for O2^•− was confirmed by the addition of SOD (150 U/mL).
as §2
Heterologous Nox1, 2, 4, and 5 cell systems were used as a testing paradigm to identify a probe molecule that inhibits Nox2 selectively over Nox1, 4, and 5. An acceptable probe would also show a lack of activity against XO, which also produces ROS. The latter screen would serve two purposes: (1) to eliminate drugs that inhibit an oxidase of distinct composition; and (2) to preclude agents that directly scavenge ROS. A cell-based primary assay using stable Nox2-transfected COS cells (Price et al., Blood 2002, 99:2653-2661) with L-012 chemiluminescence (Daiber et al., Free Radic. Biol. Med. 2004, 36:101-111) was used as a detection system for O2^•−-generation.

How did the IC50 [1] turn out when `C=C(C)CC1NC2CC(C)(C)C1c1c(Br)cccc12` (racemic) [Compound 7, (±)-(1S,4R,9S)-5-Bromo-3,3-dimethyl-9-(2-methylallyl)-1,2,3,4-tetrahydro-1,4-(epimino-methano)-naphthalene] was run?
Its IC50 is 40 µM and 25 to 40 µM.

And the “Activity in primary library screen” value [2]?
The value was “hit”.

And the IC50 [2]?
The IC50 was 45 µM and 46 µM.

What does the source list for `C=C(C)CC1NC2CC(C)(C)C1c1ccccc12` (racemic) [Compound 8, (±)-(1S,4R,9S)-3,3-Dimethyl-9-(2-methylallyl)-1,2,3,4-tetrahydro-1,4-(epiminomethano)-naphthalene]?
Nox2 inhibitory activity [1]: inactive; IC50 [1]: > 100 µM; IC50 [2]: > 100 µM

For `C=C(C)CC1C2c3ccccc3C(CC2(C)C)N1Cc1cccc(F)c1` (racemic) [Compound 11a, (±)-(1S,4R,9S)-10-(3-Fluorobenzyl)-3,3-dimethyl-9-(2-methylallyl)-1,2,3,4-tetrahydro-1,4-(epiminomethano)naphthalene], which IC50 [1] is on record?
Its IC50 is 30 ± 7.5 µM.

And the IC50 [2]?
Its IC50 is 68 ± 33 µM.

How did the “Nox2 inhibitory activity” value [1] turn out when `C=C(C)CC1C2c3c(Br)cccc3C(CC2(C)C)N1Cc1ccnc2ccccc12` (racemic) [Compound 11b, (±)-(1S,4R,9S)-5-Bromo-3,3-dimethyl-9-(2-methylallyl)-10-(quinolin-4-ylmethyl)-1,2,3,4-tetra-hydro-1,4-(epiminomethano)naphthalene] was run?
The value was “completely abolished”.

What about the IC50 [1] of the same compound?
The IC50 was over 100 µM.

What about the IC50 [2] of the same compound?
Its IC50 is over 100 µM.

How did the “Nox2 inhibitory activity” value [1] turn out when `C=C(C)CC1C2c3c(Br)cccc3C(CC2(C)C)N1Cc1c[nH]c2ccccc12` (racemic) [Compound 11c, (±)-(1S,4R,9S)-10-((1H-Indol-3-yl)methyl)-5-bromo-3,3-dimethyl-9-(2-methylallyl)-1,2,3,4-tetrahydro-1,4-(epiminomethano)naphthalene] was run?
The value was “completely abolished”.

What about the IC50 [1] of the same compound?
Its IC50 is over 100 µM.

And the IC50 [2]?
Its IC50 is over 100 µM.

`C=C(C)CC1C2c3c(Br)cccc3C(CC2(C)C)N1Cc1ccc2c(c1)OCO2` (racemic) [Compound 11d, (±)-(1S,4R,9S)-10-(Benzo[d][1,3]dioxol-5-ylmethyl)-5-bromo-3,3-dimethyl-9-(2-methylallyl)-1,2,3,4-tetrahydro-1,4-(epiminomethano)naphthalene] was tested. Which “Nox2 inhibitory activity” value [1] did it give?
Its value is “decreased”.

What about the IC50 [1] of the same compound?
The IC50 was 40 µM.

What about the IC50 [2] of the same compound?
The IC50 was 88 ± 22 µM.

With `C=C(C)CC1C2c3c(Br)cccc3C(CC2(C)C)N1Cc1cc(C)on1` (racemic) [Compound 11e, (±)-3-(1S,4R,9S)-5-Bromo-3,3-dimethyl-9-(2-methylallyl)-1,2,3,4-tetrahydro-1,4-(epimino-methano) naphthalen-10-yl)methyl)-5-methylisoxazole] as the compound, how does the IC50 [1] read?
The IC50 was 12 ± 0.5 µM.

And the IC50 [2]?
Its IC50 is 48 ± 23 µM.

What does the source list for `C=C(C)CC1C2c3c(Br)cccc3C(CC2(C)C)N1Cc1cccc(F)c1` (racemic) [Compound 11f, (±)-(1S,4R,9S)-5-Bromo-10-(3-fluorobenzyl)-3,3-dimethyl-9-(2-methylallyl)-1,2,3,4-tetrahydro-1,4-(epiminomethano)naphthalene]?
IC50 [1]: 51 µM; IC50 [2]: 68 ± 22 µM

Which “Selectivity for Nox2 over other Nox isoforms” value (“Selectivity for Nox2” below) [1] does the source give for `C=C(C)CC1C2c3c(Br)cccc3C(CC2(C)C)N1CCCCC` (racemic) [Compound 11g, (±)-(1S,4R,9S)-5-Bromo-3,3-dimethyl-9-(2-methylallyl-10-pentyl-1,2,3,4-tetrahydro-1,4-(epiminomethano)naphthalene] here?
Its value is “specificity for Nox2 over Nox1, 4, and 5”.

And the IC50 [1]?
The IC50 was 20 ± 1.9 µM.

And the IC50 [2]?
Its IC50 is 20 ± 4.9 µM.

`C=C(C)CC1C2c3c(Br)cccc3C(CC2(C)C)N1Cc1cccs1` (racemic) [Compound 11h, (±)-(1S,4R,9S)-5-Bromo-3,3-dimethyl-9-(2-methylallyl)-10-(thiophen-2-ylmethyl)-1,2,3,4-tetrahydro-1,4-(epiminomethano)naphthalene] was tested. Which “Selectivity for Nox2” value [1] did it give?
Its value is “specificity for Nox2 over Nox1, 4, and 5”.

And the IC50 [1]?
Its IC50 is 32 ± 1.9 µM.

What about the IC50 [2] of the same compound?
Its IC50 is 38 ± 11 µM.

`C=C(C)CC1NC2CC(C)(C)C1c1c(-c3ccc(Cl)c(Cl)c3)cccc12` (racemic) [Compound 12a, (±)-(1S,4R,9S)-5-(3,4-Dichlorophenyl)-3,3-dimethyl-9-(2-methylallyl)-1,2,3,4-tetrahydro-1,4-(epiminomethano)naphthalene] was tested. Which “Nox2 inhibitory activity” value [1] did it give?
The value was “comparable”.

And the “Selectivity for Nox2” value [1]?
The value was “greater selectivity over Nox1”.

What about the IC50 [1] of the same compound?
The IC50 was 64 ± 35 µM.

And the IC50 [2]?
Its IC50 is 9 ± 0.9 µM.

Which “Nox2 inhibitory activity” value [1] does the source give for `C=C(C)CC1C2c3c(-c4ccc(Cl)c(Cl)c4)cccc3C(CC2(C)C)N1Cc1ccc2c(c1)OCO2` (racemic) [Compound 12b, (±)-(1S,4R,9S)-10-(Benzo[d][1,3]dioxol-5-ylmethyl)-5-(3,4-dichlorophenyl)-3,3-dimethyl-9-(2-methylallyl)-1,2,3,4-tetrahydro-1,4-(epiminomethano)-naphthalene] here?
The value was “inactive”.

What about the IC50 [1] of the same compound?
Its IC50 is over 100 µM.

And the IC50 [2]?
Its IC50 is over 100 µM.

Which “Nox2 inhibitory activity” value [1] does the source give for `C=C(C)CC1C2c3c(-c4ccc(Cl)c(Cl)c4)cccc3C(CC2(C)C)N1CCCCC` (racemic) [Compound 12c] here?
The value was “inactive”.

And the IC50 [1]?
The IC50 was 79 µM.

What about the IC50 [2] of the same compound?
The IC50 was over 100 µM.

Which “Nox2 inhibitory activity” value [1] does the source give for `CC(C)CC1NC2CC(C)(C)C1c1c(Br)cccc12` (racemic) [Compound 13] here?
Its value is “retained inhibitory activity”.

What about the IC50 [1] of the same compound?
Its IC50 is 78 ± 19 µM.

And the IC50 [2]?
Its IC50 is 31 ± 3.8 µM.

How did the “Nox2 inhibitory activity” value [1] turn out when `C=C(C)CC1C2c3c(Br)cccc3C(CC2(C)C)N1S(C)(=O)=O` (racemic) [Compound 14a, (±)-(1S,4R,9S)-5-Bromo-3,3-dimethyl-9-(2-methylallyl)-10-(methylsulfonyl)-1,2,3,4-tetrahydro-1,4-(epiminomethano)naphthalene] was run?
The value was “completely abolished activity”.

And the IC50 [1]?
The IC50 was 27 ± 4.7 µM.

And the IC50 [2]?
The IC50 was over 100 µM.

For `C=C(C)CC1C2c3c(Br)cccc3C(CC2(C)C)N1S(=O)(=O)c1ccc(F)cc1` (racemic) [Compound 14b, (±)-(1S,4R,9S)-5-Bromo-10-((4-fluorophenyl)sulfonyl)-3,3-dimethyl-9-(2-methylallyl)-1,2,3,4-tetrahydro-1,4-(epiminomethano)naphthalene], which “Nox2 inhibitory activity” value [1] is on record?
Its value is “completely abolished activity”.

And the IC50 [1]?
The IC50 was over 100 µM.

And the IC50 [2]?
Its IC50 is over 100 µM.

How did the IC50 [1] turn out when `C=C(C)C[C@@H]1N[C@H]2CC(C)(C)[C@@H]1c1c(Br)ccc(Br)c12` [Compound 9] was run?
The IC50 was 25 ± 10 µM.

And the “Activity in primary library screen” value [2]?
Its value is “active”.

And the IC50 [2]?
The IC50 was 40 ± 2.8 µM.
